From patent US12637481B2, “Boronic acid derivatives and therapeutic uses thereof” (QPEX BIOPHARMA, INC., priority 2020, dated 2026) come the findings set out here.

The nature of series [1]: Microsomal activation of prodrug, human liver microsomes. The format is in vitro ADME. The note with it: for half-life at 1 μM: 1 μM in human liver microsomes, room temperature, assayed for active drug by LC/MS/MS. How it is done: (§1) Serum activation: Compounds 1, 2, or II were solubilized in water and added to rat, dog, monkey, and human serum at a concentration of 50 μg/mL. The samples were incubated at room temperature for 1 hour then assayed for “active” drug content using an LC/MS/MS assay. Microsomal activation: Compounds 1, 2, or II were solubilized in water and added to rat, dog, monkey, and human liver microsomes at a concentration of 1 μM. The samples were incubated at room temperature for 1 hour then assayed for “active” drug content using an LC/MS/MS assay.
For orientation: Liver microsomes are a subcellular fraction often used to study metabolism.

The nature of series [2]: Microsomal activation of prodrug, monkey liver microsomes. The format is in vitro ADME. The note with it: 1 μM in monkey liver microsomes, room temperature, assayed for active drug by LC/MS/MS; read-out: Half-life monkey micorsomes. Here is the method:
as §1

Series [3] can be described thus: Serum activation of prodrug, monkey serum. Particulars: 50 μg/mL in monkey serum, room temperature, 1 hour, assayed for active drug by LC/MS/MS. The format is in vitro ADME. How it is done: as §1
The nature of another series: Crystallinity. The format is physicochemical.
The next series in a line: Permeability/transport. The format is in vitro ADME.
The nature of series [4]: Serum activation of prodrug, dog serum. The format is in vitro ADME. The note with it: 50 μg/mL in dog serum, room temperature, 1 hour, assayed for active drug by LC/MS/MS. Here is the method: as §1
Series [5] can be described thus: Microsomal activation of prodrug, rat liver microsomes. The note with it: 1 μM in rat liver microsomes, room temperature, assayed for active drug by LC/MS/MS. It counts as in vitro ADME. Here is the method:
as §1

The nature of series [6]: Serum activation of prodrug, human serum. It counts as in vitro ADME. Particulars: 50 μg/mL in human serum, room temperature, 1 hour, assayed for active drug by LC/MS/MS. Here is the method: as §1
Series [7] in a line: Microsomal activation of prodrug, dog liver microsomes. It counts as in vitro ADME. The note with it: 1 μM in dog liver microsomes, room temperature, assayed for active drug by LC/MS/MS. Here is the method: as §1
A short description of series [8]: Serum activation of prodrug, rat serum. It counts as in vitro ADME. The note with it: 50 μg/mL in rat serum, room temperature, 1 hour, assayed for active drug by LC/MS/MS. Here is the method:
as §1

The nature of series [9]: Dynamic vapor sorption (DVS), hygroscopicity. It counts as physicochemical. The note with it: 25° C., 5 to 95% RH. Here is the method:
DVS analysis was carried out using a TA Instruments Q5000 Dynamic Vapor Sorption analyzer. The instrument was calibrated with standard weights and a sodium bromide standard for humidity. Approximately 20 mg of sample was loaded into a metal-coated quartz pan for analysis. The sample was analyzed at 25° C. with a maximum equilibration time of one hour in 10% relative humidity (RH) steps from 5 to 95% RH (adsorption cycle) and from 95 to 5% RH (desorption cycle). The movement from one step to the next occurred either after satisfying the equilibrium criterion of 0.01% weight change or, if the equilibrium criterion was not met, after one hour. The percent weight change values were calculated using Microsoft Excel®. The temperature for the DVS analysis can impact the outcome of the results.

Like-named read-outs stand apart in the source and are kept apart here. Some results are limits rather than exact numbers.

In the case of `CCCC(=O)OCOC(=O)c1c(F)ccc2c1OB(O)[C@@H]1C[C@H]21` [Compound 1], the half-life (as a rule, how long it takes for the measured level to halve) at 1 μM in series [1] came to 28 ± 2 min; in series [2], 2 ± 1 min; in series [5] it was 3 ± 1 min; in series [7], 11 ± 1 min. The “human microsomal activation, compared in words” value in series [1] (compared with Compound 2 or Compound II) is recorded as “significantly slower”. The half-life at 50 μg/mL in [3], in [4], in series [6] and in series [8] was greater than 60 min throughout. Besides, in “Crystallinity”, the Crystallinity result is “Yes”. For the same molecule, the Permeability/transport result in “Permeability/transport” is recorded as “High”.

In the case of `CC(=O)OCOC(=O)c1c(F)ccc2c1OB(O)[C@@H]1C[C@H]21` [Compound 2], the half-life at 1 μM was determined as 8 ± 1 min in [1], 3 ± 2 min in [2] and 3 ± 2 min in series [5]. Further, the half-life at 50 μg/mL in series [3], in series [4], in series [6] and in series [8] was greater than 60 min each time. For the same molecule, the Crystallinity result in the series “Crystallinity” was “not crystalline”; in the series “Crystallinity” (listed as drawing 11) it was “No”. Further, in “Permeability/transport”, the Permeability/transport result is recorded as “High”.

For `CC(C)C(=O)OCOC(=O)c1c(F)ccc2c1OB(O)[C@@H]1C[C@H]21` [Compound II, (isobutyryloxy)methyl (1aR,7bS)-5-fluoro-2-hydroxy-1,1a,2,7b-tetrahydrobenzo[e]cyclopropa[c][1,2]oxaborinine-4-carboxylate], the half-life at 1 μM was 9 ± 5 min in series [1], 2 ± 1 min in series [2], 5 ± 3 min in [5] and 23 ± 2 min in series [7]. In addition, the “Human microsome activation t1/2” value in [1] (human liver microsomes, as repeated in Table 2) was 9 + 5 min. The half-life at 50 μg/mL in series [3], in [4], in [6] and in series [8] was greater than 60 min throughout. The Crystallinity entry in the series “Crystallinity” is given as “Yes”. In addition, in “Permeability/transport”, the Permeability/transport result is recorded as “High”.

Turning to `CC(C)C(=O)OCOC(=O)c1c(F)ccc2c1O[B-](O)(O)[C@@H]1C[C@H]21.[Na+]` [crystalline Form A of Compound II′], the “Hygroscopicity by dynamic vapor sorption (DVS)” value in series [9] is reported as “slightly hygroscopic”.

With `CC(C)C(=O)OCOC(=O)c1c(F)ccc2c1O[B-](O)(O)[C@@H]1C[C@H]21.[Na+]` [crystalline Form B of Compound II′], in [9], the “Hygroscopicity by dynamic vapor sorption (DVS)” value is “moderately hygroscopic”.
